Data published in patent publication US20120029187A1, “HALOALKYLSULFONANILIDE DERIVATIVE” (Nissan Chemical Industries, Ltd., priority 2009, published 2012).

Key:
Type in all cases: in vivo
ducksalad [1] = experiment: Test Example 1: herbicidal effects in preemergence treatment under submerged conditions; settings: dose 2.52 g/a
Outline: (§1)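 Alluvial soil was flooded to 4 cm, sown with barnyardgrass, bulrush and ducksalad, and planted with 2.5-leaf rice seedlings. On the seeding day, water-diluted emulsifiable concentrates were applied to the water surface at set doses (g/a). After three weeks in a 25 to 30° C. greenhouse, mortality was scored 0–5.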

barnyardgrass [2] = experiment: as above; settings: dose 2.52 g/a
Outline: as §1

bulrush [3] = experiment: as above; settings: dose 2.52 g/a
Outline: as §1

giant foxtail [4] = experiment: Test Example 4: herbicidal effect in foliage treatment; settings: dose 3.2 g/a, three weeks after application
Outline: (§2)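 Seeds were spot-sown in boxes of sterilized diluvial soil and raised in a greenhouse (25 to 30° C) for 14 days before a single foliar application. Compounds were applied as emulsifiable concentrates diluted with water, at predetermined doses in g/a. Injury was graded three weeks post-spray.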

posumbu knotweed [5] = experiment: as above; settings: dose 3.2 g/a, three weeks after application
Outline: as §2

redroot pigweed [6] = experiment: as above; settings: dose 3.2 g/a, three weeks after application
Outline: as §2

barnyardgrass [7] = experiment: as above; settings: dose 3.2 g/a, three weeks after application
Outline: as §2

velvetleaf [8] = experiment: as above; settings: dose 3.2 g/a, three weeks after application
Outline: as §2

common lambsquater [9] = experiment: as above; settings: dose 3.2 g/a, three weeks after application
Outline: as §2

beadstraw = experiment: as above; settings: dose 3.2 g/a, three weeks after application
Outline: as §2

common ragweed [10] = experiment: as above; settings: dose 3.2 g/a, three weeks after application
Outline: as §2

water foxtail [11] = experiment: as above; settings: dose 3.2 g/a, three weeks after application
Outline: as §2

large crabgrass [12] = experiment: as above; settings: dose 3.2 g/a, three weeks after application
Outline: as §2

Italian ryegrass [13] = experiment: as above; settings: dose 3.2 g/a, three weeks after application
Outline: as §2

common chickweed [14] = experiment: as above; settings: dose 3.2 g/a, three weeks after application
Outline: as §2

giant foxtail [15] = experiment: Test Example 3: herbicidal effects in soil treatment; settings: dose 3.2 g/a
Outline: (§3)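 Seeds were sown in sterilized diluvial soil and covered with about 1.5 cm of soil. Compounds, formulated as emulsifiable concentrates and diluted with water, were sprayed evenly over the soil surface at set doses in g/a. Herbicidal effect was scored on a rating scale three weeks later.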

posumbu knotweed [16] = experiment: as above; settings: dose 3.2 g/a
Outline: as §3

redroot pigweed [17] = experiment: as above; settings: dose 3.2 g/a
Outline: as §3

barnyardgrass [18] = experiment: as above; settings: dose 3.2 g/a
Outline: as §3

velvetleaf [19] = experiment: as above; settings: dose 3.2 g/a
Outline: as §3

common lambsquater [20] = experiment: as above; settings: dose 3.2 g/a
Outline: as §3

common ragweed [21] = experiment: as above; settings: dose 3.2 g/a
Outline: as §3

water foxtail [22] = experiment: as above; settings: dose 3.2 g/a
Outline: as §3

large crabgrass [23] = experiment: as above; settings: dose 3.2 g/a
Outline: as §3

Italian ryegrass [24] = experiment: as above; settings: dose 3.2 g/a
Outline: as §3

common chickweed [25] = experiment: as above; settings: dose 3.2 g/a
Outline: as §3

ducksalad [26] = experiment: Test Example 2: herbicidal effects during the vegetation period under submerged conditions; settings: treatment during the vegetation period under submerged conditions; dose 2.52 g/a
Outline: (§4)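 Barnyardgrass, bulrush and ducksalad were co-sown in alluvial soil flooded to 4 cm and grown in a greenhouse at 25 to 30° C. At the 1- or 2-leaf stage, water-diluted emulsifiable concentrates went onto the water surface at set doses (g/a). Herbicidal effect was scored three weeks later on a graded scale.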

barnyardgrass [27] = experiment: as above; settings: treatment during the vegetation period under submerged conditions; dose 2.52 g/a
Outline: as §4

bulrush [28] = experiment: as above; settings: treatment during the vegetation period under submerged conditions; dose 2.52 g/a
Outline: as §4

transplanted rice = experiment: Test Example 1: preemergence treatment under submerged conditions, effect on crop; settings: dose 2.52 g/a
Outline: as §1

With `CCOC(=O)N(c1ccccc1CN1COC(C)(C(F)(F)F)CC1=O)S(=O)(=O)C(F)(F)F` (stereo not drawn) [II-49] the “C: ducksalad, herbicidal effect (evaluation scale 0-5)” value (“C: ducksalad, herbicidal effect” for short) (ducksalad [1]) was 5 (mortality of 90% or above (nearly complete death)), the “A: barnyardgrass, herbicidal effect (evaluation scale 0-5)” value (barnyardgrass [2]) was 5 (mortality of 90% or above (nearly complete death)) and the “B: bulrush, herbicidal effect (evaluation scale 0-5)” value (from here on “B: bulrush, herbicidal effect”) (bulrush [3]) was 5 (mortality of 90% or above (nearly complete death)). For the same compound, the “E: giant foxtail, herbicidal effect” value (giant foxtail [4]) was 3 (mortality of at least 40% and less than 70%), the “M: posumbu knotweed, herbicidal effect” value (posumbu knotweed [5]) was 3 (mortality of at least 40% and less than 70%) and the “K: redroot pigweed, herbicidal effect” value (redroot pigweed [6]) was 0 (mortality of less than 5% (almost ineffective)). The “A: barnyardgrass, herbicidal effect” value (barnyardgrass [7]) was 4 (mortality of at least 70% and less than 90%), the “I: velvetleaf, herbicidal effect” value (velvetleaf [8]) was 0 (mortality of less than 5% (almost ineffective)) and the “L: common lambsquater, herbicidal effect” value (common lambsquater [9]) was 3 (mortality of at least 40% and less than 70%). The “O: beadstraw, herbicidal effect” value (beadstraw) was 4 (mortality of at least 70% and less than 90%), the “J: common ragweed, herbicidal effect” value (common ragweed [10]) was 3 (mortality of at least 40% and less than 70%) and the “G: water foxtail, herbicidal effect” value (water foxtail [11]) was 3 (mortality of at least 40% and less than 70%). For the same compound, the “D: large crabgrass, herbicidal effect” value (large crabgrass [12]) was 0 (mortality of less than 5% (almost ineffective)), the “H: Italian ryegrass, herbicidal effect” value (Italian ryegrass [13]) was 0 (mortality of less than 5% (almost ineffective)) and the “N: common chickweed, herbicidal effect” value (common chickweed [14]) was 3 (mortality of at least 40% and less than 70%). For the same compound, the “E: giant foxtail, herbicidal effect (evaluation scale 0-5)” value (giant foxtail [15]) was 3 (mortality of at least 40% and less than 70%), the “M: posumbu knotweed, herbicidal effect (evaluation scale 0-5)” value (posumbu knotweed [16]) was 4 (mortality of at least 70% and less than 90%) and the “K: redroot pigweed, herbicidal effect (evaluation scale 0-5)” value (redroot pigweed [17]) was 0 (mortality of less than 5% (almost ineffective)). The “A: barnyardgrass, herbicidal effect (evaluation scale 0-5)” value (barnyardgrass [18]) was 3 (mortality of at least 40% and less than 70%), the “I: velvetleaf, herbicidal effect (evaluation scale 0-5)” value (velvetleaf [19]) was 0 (mortality of less than 5% (almost ineffective)) and the “L: common lambsquater, herbicidal effect (evaluation scale 0-5)” value (common lambsquater [20]) was 2 (mortality of at least 20% and less than 40%). For the same compound, the “J: common ragweed, herbicidal effect (evaluation scale 0-5)” value (common ragweed [21]) was 4 (mortality of at least 70% and less than 90%), the “G: water foxtail, herbicidal effect (evaluation scale 0-5)” value (water foxtail [22]) was 5 (mortality of 90% or above (nearly complete death)) and the “D: large crabgrass, herbicidal effect (evaluation scale 0-5)” value (large crabgrass [23]) was 3 (mortality of at least 40% and less than 70%). For the same compound, the “H: Italian ryegrass, herbicidal effect (evaluation scale 0-5)” value (Italian ryegrass [24]) was 3 (mortality of at least 40% and less than 70%), the “N: common chickweed, herbicidal effect (evaluation scale 0-5)” value (common chickweed [25]) was 4 (mortality of at least 70% and less than 90%) and the “C: ducksalad, herbicidal effect” value (ducksalad [26]) was 5 (mortality of 90% or above (nearly complete death)). For the same compound, the “A: barnyardgrass, herbicidal effect (evaluation scale 0-5)” value (barnyardgrass [27]) was 5 (mortality of 90% or above (nearly complete death)), the “B: bulrush, herbicidal effect” value (bulrush [28]) was 5 (mortality of 90% or above (nearly complete death)) and the “a: transplanted rice, effect on crop (evaluation scale 0-5)” value (transplanted rice) was 0 (mortality of less than 5% (almost ineffective)).
In the case of `CC1(CC(F)(F)F)CC(=O)N(Cc2ccccc2NS(=O)(=O)C(F)(F)F)CO1` (stereo not drawn) [II-51], the “C: ducksalad, herbicidal effect” value (ducksalad [1]) was 5 (mortality of 90% or above (nearly complete death)), the “A: barnyardgrass, herbicidal effect (evaluation scale 0-5)” value (barnyardgrass [2]) was 5 (mortality of 90% or above (nearly complete death)) and the “B: bulrush, herbicidal effect” value (bulrush [3]) was 5 (mortality of 90% or above (nearly complete death)). For the same compound, the “E: giant foxtail, herbicidal effect” value (giant foxtail [4]) was 4 (mortality of at least 70% and less than 90%), the “M: posumbu knotweed, herbicidal effect” value (posumbu knotweed [5]) was 5 (mortality of 90% or above (nearly complete death)) and the “K: redroot pigweed, herbicidal effect” value (redroot pigweed [6]) was 0 (mortality of less than 5% (almost ineffective)). For the same compound, the “A: barnyardgrass, herbicidal effect” value (barnyardgrass [7]) was 5 (mortality of 90% or above (nearly complete death)), the “I: velvetleaf, herbicidal effect” value (velvetleaf [8]) was 4 (mortality of at least 70% and less than 90%) and the “L: common lambsquater, herbicidal effect” value (common lambsquater [9]) was 3 (mortality of at least 40% and less than 70%). For the same compound, the “O: beadstraw, herbicidal effect” value (beadstraw) was 4 (mortality of at least 70% and less than 90%), the “J: common ragweed, herbicidal effect” value (common ragweed [10]) was 3 (mortality of at least 40% and less than 70%) and the “G: water foxtail, herbicidal effect” value (water foxtail [11]) was 5 (mortality of 90% or above (nearly complete death)). The “D: large crabgrass, herbicidal effect” value (large crabgrass [12]) was 4 (mortality of at least 70% and less than 90%), the “H: Italian ryegrass, herbicidal effect” value (Italian ryegrass [13]) was 3 (mortality of at least 40% and less than 70%) and the “N: common chickweed, herbicidal effect” value (common chickweed [14]) was 5 (mortality of 90% or above (nearly complete death)). The “E: giant foxtail, herbicidal effect (evaluation scale 0-5)” value (giant foxtail [15]) was 4 (mortality of at least 70% and less than 90%), the “M: posumbu knotweed, herbicidal effect (evaluation scale 0-5)” value (posumbu knotweed [16]) was 5 (mortality of 90% or above (nearly complete death)) and the “K: redroot pigweed, herbicidal effect (evaluation scale 0-5)” value (redroot pigweed [17]) was 0 (mortality of less than 5% (almost ineffective)). For the same compound, the “A: barnyardgrass, herbicidal effect (evaluation scale 0-5)” value (barnyardgrass [18]) was 5 (mortality of 90% or above (nearly complete death)), the “I: velvetleaf, herbicidal effect (evaluation scale 0-5)” value (velvetleaf [19]) was 5 (mortality of 90% or above (nearly complete death)) and the “L: common lambsquater, herbicidal effect (evaluation scale 0-5)” value (common lambsquater [20]) was 0 (mortality of less than 5% (almost ineffective)). For the same compound, the “J: common ragweed, herbicidal effect (evaluation scale 0-5)” value (common ragweed [21]) was 4 (mortality of at least 70% and less than 90%), the “G: water foxtail, herbicidal effect (evaluation scale 0-5)” value (water foxtail [22]) was 5 (mortality of 90% or above (nearly complete death)) and the “D: large crabgrass, herbicidal effect (evaluation scale 0-5)” value (large crabgrass [23]) was 5 (mortality of 90% or above (nearly complete death)). For the same compound, the “H: Italian ryegrass, herbicidal effect (evaluation scale 0-5)” value (Italian ryegrass [24]) was 3 (mortality of at least 40% and less than 70%), the “N: common chickweed, herbicidal effect (evaluation scale 0-5)” value (common chickweed [25]) was 5 (mortality of 90% or above (nearly complete death)) and the “C: ducksalad, herbicidal effect” value (ducksalad [26]) was 5 (mortality of 90% or above (nearly complete death)). For the same compound, the “A: barnyardgrass, herbicidal effect (evaluation scale 0-5)” value (barnyardgrass [27]) was 5 (mortality of 90% or above (nearly complete death)), the “B: bulrush, herbicidal effect” value (bulrush [28]) was 4 (mortality of at least 70% and less than 90%) and the “a: transplanted rice, effect on crop (evaluation scale 0-5)” value (transplanted rice) was 0 (mortality of less than 5% (almost ineffective)).
